row,melting point [°C],Compound
1,50 to 51,C[Si](C)(C)c1ccc(NC(=O)CCCC=C(F)F)cc1
2,195 to 197,O=C(O)Cc1ccc(NC(=O)C(COc2cccc(Cl)c2)NS(=O)(=O)c2ccc(F)cc2)cc1 (racemic)
3,123 to 124,Cc1nc(N2CCC(NCc3ccc(F)cc3)C2=O)sc1C(=O)NCc1ccc(F)cc1 (stereo not drawn)
4,> 300,O=C1Nc2ccc(C(F)(F)F)cc2C1c1nc(Cl)nc2nn(C3CCCC3)cc12 (stereo not drawn)
5,109 to 111,CCCCNC(=O)NS(=O)(=O)c1c(C(=O)OCC)c(Cl)nn1C
6,292 to 293,COc1ccc(C(=O)Nc2c(Cl)cncc2Cl)c2[nH]cnc12
7,186 to 187,COc1cc(Nc2nccc(-c3ccc(N4CC(O)C4)nc3)n2)cc(OC)c1OC
8,118 to 122,COc1ccc(-c2nc(C(=O)Nc3c(C)cccc3C)c[nH]2)cc1OC1CCCC1
9,136 to 137,COc1cc(CCC(=O)O)ccc1OCCCc1cn(-c2ccc(C(F)(F)F)cn2)nc1C
10,189 to 190,CC(C)Cn1c(=O)[nH]c(=O)c2cc(Cc3cccc4ccccc34)sc21
11,89 to 91,CCOC1CC2(C)C(CCC3C4CC=C(C(C)=O)C4(C)CC(=O)C32)CC1O (stereo not drawn)
12,111 to 112,COC(=O)CCC#Cc1cc(F)cc([N+](=O)[O-])c1
13,91 to 94,COC(=O)c1ccccc1NC(=O)NCC1(c2ccccc2)CCCCC1
14,300,O=C(O)c1cnc(Nc2ccccc2F)[nH]c1=O
15,213 to 215,Nc1ccc(Oc2cc(C34CCCCC3C(=O)NC4=O)c(F)cc2Cl)cc1 (stereo not drawn)
16,188 to 194,COC(=O)c1sccc1S(=O)(=O)Nc1onc(C)c1Br
17,150 to 152,Cc1ccc(S(=O)(=O)OCC2CN(c3cc(F)c(N4CCN(C(=O)OC(C)(C)C)CC4)c(F)c3)C(=O)O2)cc1 (stereo not drawn)
18,140 to 144,CC(C(=O)O)c1cccc2c(-c3ccccc3)onc12 (stereo not drawn)
19,206 to 207,CC(=O)Oc1c2c(c3ccccc3c1OC(C)=O)Nc1ccccc1S2
20,142 to 150,COC(=O)CCC(=O)c1ccc2c(c1)C(C)NC(=O)N2 (stereo not drawn)
21,188 to 191,COc1ccc(CCC(=O)Nc2c(C)c(C)c3c(c2C)C(c2ccc(C(C)C)cc2)C(C)(C)O3)cc1 (stereo not drawn)
22,110,CC(C)(C)OC(=O)c1ccc(N(Cc2ccc(C(=O)O)cc2)Cc2cc(Br)ccc2OCc2ccccc2)cc1
23,130 to 131,COc1ccc(NC(=O)C2CC2)cn1
24,145 to 150,COC1(C(=O)CCc2ccc(-c3ccc(O)cc3)cc2)C=CC(Cl)=CC1N (stereo not drawn)

row,melting point [°C],Compound
1,226,COc1cc(C(=O)c2nc(C(=O)O)c3ccccn23)ccc1N
2,140,NC(=O)c1cc(OCCNCc2ccccc2)ccc1O
3,310,CCn1ncc2c(NCC34CC5CC(CC(C5)C3)C4)c3ccccc3nc21
4,111 to 112,O=C1OCCC12Oc1ccccc1C2=O (stereo not drawn)
5,219 to 226,O=C1COc2cc3[nH]c(C(=O)N4CCC(Cc5ccc(F)cc5)CC4)cc3cc2N1
6,170 to 172,O=C(O)COc1ccc2cc(-c3sc4ccccc4c3C(=O)Cc3ccccc3)ccc2c1Br
7,65 to 67,CCOC(=O)CCCCc1ccc2c(c1)C[C@@H](NC(=O)OC(C)(C)C)CC2
8,96 to 97,CCN(CC)C(=O)n1ccc(S(=O)(=O)c2cc(Cl)ccc2C)n1
9,41 to 43,COC(=O)CCCCC(=O)c1ccc(F)cc1
10,219 to 220,CCCc1nnc2c(=O)n(C)c3ccc(OC)cc3n12
11,245 to 247,CC1CCn2c(nc(-c3ccncc3)cc2=O)N1 (stereo not drawn)
12,63 to 64,O=C(CCCCOc1ccc(O)cc1)C(F)(F)F
13,182,COC(=O)c1cc2cccc(OC)c2cc1O
14,196,CCCCCCn1c(=O)c(=O)[nH]c2c3ccccc3ccc21
15,73 to 75,CCOC(=O)c1c(CCc2ccc(OC)cc2)oc2ccc(Br)cc12
16,81 to 83,COc1ccc2[nH]c3c(c2c1)C(C(=O)OCc1ccccc1)CCC3 (stereo not drawn)
17,160,COc1ccc2c(c1)n(C1CCCCC1)c(=O)n2S(=O)(=O)c1ccc([N+](=O)[O-])cc1
18,244,Cc1ccc(-c2ccc3c(c2)C=C(C(=O)O)CS3)cc1
19,209 to 211,COCCNC(=O)c1c(O)c2cc(Cl)ccc2n(C)c1=N
20,137 to 138,C=C(CC(=O)c1ccc(C)cc1)C(=O)O
21,131 to 133,CC(=O)c1cc(CN2CCNC2=O)ccc1O
22,174 to 176,CCC(C)C(NC(c1ccccc1)c1ccccc1)P(O)O (stereo not drawn)
23,176 to 179,O=C(O)c1cc([N+](=O)[O-])ccc1C(=O)c1ccccc1
24,132 to 134,CC[C@H](C)[C@H](Nc1nc(C(=O)c2ccccc2)ns1)C(=O)N1CCC[C@H]1C(=O)O

# More lines, now with the values behind:
row,Compound,melting point [°C]
1,CC(C)CC(N)S(=O)(=O)O (stereo not drawn),142 to 144
2,O=C(NC(C(=O)O)c1ccccc1)c1ccccc1SSc1ccccc1C(=O)NC(C(=O)O)c1ccccc1 (stereo not drawn),231 to 232
3,O=C(O)c1cccc2nc(OCC(F)(F)F)n(Cc3ccc(-c4ccccc4-c4nnn[nH]4)cc3)c12,204 to 206
4,CN(C#N)C(=O)CCCCCCCCC(=O)N(C)C#N,83.4 to 84
5,Cc1ccc(Cn2nc(C(=O)O)c(C)c2-c2ccc(Cl)cc2)cc1Cl,162
6,Cc1ccc(C(=O)Nc2nc(-c3ccccc3)c(-c3nc4ccccc4c(=O)n3-c3ccccc3Cl)s2)cc1,> 275
7,COc1ccc(CN2CCNCC2)cc1,99 to 101
8,Cn1ncnc1COc1nn2c(-c3ccc(F)cc3)nncc2c1-c1ccccc1F,191
9,COc1ccc2c(c1)CCCCN2C(=O)Nc1cccc(C(F)(F)F)c1,108
10,Cc1c(C)c(N)c2c(c1C)C(c1ccc(C(C)C)cc1)CO2 (stereo not drawn),122 to 123
11,CCN(CC)C(N)=C(C#N)C(N)=S,151 to 152
12,Clc1ccc(NC2CCN(Cc3ccccc3)CC2)nn1,208 to 209
13,N#Cc1cccc(N2C(=O)CC(=O)Nc3c2ccc2ccccc32)c1,220 to 222
14,Cc1c(-c2ccc(C(F)(F)F)cc2)n(Cc2ccc(OCCBr)cc2)c2ccc(OCc3ccccc3)cc12,106 to 109
15,O=C(O)c1cc2cc(Cl)ccc2nc1NC(Cc1ccc(C#Cc2ccccc2)cc1)C(=O)O (stereo not drawn),164 to 173
16,C=CCn1c(=O)c2[nH]c(/C=C/c3cc(OC)c(OC)c(OC)c3)nc2n(CC=C)c1=O,253 to 255
17,Cn1cc(-c2nc(C(F)(F)F)c[nH]2)cn1,206 to 207
18,CCCCCCCCCCC1(CCCCCCCCCC)c2cc(-c3cccs3)ccc2-c2ccc(-c3cccs3)cc21,59.9 to 60.8
19,N#CC1=C2N(Cc3ccc(Cl)nc3)CCN2C2CCC1O2 (stereo not drawn),125 to 127
20,O=c1oc(=O)n(Cc2ccco2)c2ccccc12,131 to 133
21,CC(C)(C)c1ccc(Cn2c3c(c4cc(OCc5ccccc5)ccc42)C(=O)C(=O)OC3)cc1,233 to 234
22,COC(=O)c1ccc(-c2ccc(-c3ccc4c(c3)C(C)(C)CCC4(C)C)n2C)cc1,104 to 105
23,CCCCCCCC1OC1CO (stereo not drawn),50 to 51
24,CN(C)C1CCN(c2nc(N3CCOCC3)c3ncnc(N(Cc4ccccc4)Cc4ccccc4)c3n2)CC1,163
25,O=C(O)C=CC=Cc1cccc2cncn12,243 to 245

row,Compound,melting point [°C]
1,OC1(CNCc2ccccc2)CCN(CCc2c[nH]c3ccc(-n4cnnc4)cc23)C1 (stereo not drawn),> 56
2,CCc1c([N+](=O)[O-])c(C(N)=O)nn1CCN1CCOCC1,132 to 133
3,CCOC(=O)C(O[Si](C)(C)C)C(O[Si](C)(C)C)c1cc(OC)c(OC)cc1[N+](=O)[O-] (stereo not drawn),151 to 153
4,CC(=O)N1Cc2cnc(C)n2-c2ccc(Cl)cc2C1c1ccccc1F (stereo not drawn),185 to 186
5,CCOC(=O)CCN1C(=O)C(NC(=O)Nc2ccc(Cl)cc2)N=C(c2ccccc2)c2ccccc21 (stereo not drawn),251 to 253
6,Cc1cc(OC2SCC(O)C(O)C2O)cc(C)c1-c1ccncc1 (stereo not drawn),106 to 107
7,O=C(N[C@H](Cc1ccc(C(F)(F)F)cc1)[C@@H](O)c1ccc(F)cc1)c1cccc2cc3ccccc3cc12 (racemic),227 to 228
8,CN(C)C=C1CCc2ccn(C)c2C1=O,49 to 51
9,COc1ccc(-n2c3ccccc3c3cc(C(C#N)=C(C#N)c4cc(F)cc(F)c4)ccc32)cc1,140 to 142
10,CCCCCCCCCCCCCCCCCCOCC(CO)OC(=O)N1CCOCC1 (stereo not drawn),48 to 49
11,Cc1ccccc1OCC1CO1 (stereo not drawn),114 to 116
12,c1coc(-c2cnc3[nH]c4ccccc4c3c2)c1,> 220
13,O=C(NCc1ccccc1Cl)c1ccccc1CN1C(=O)C2(COc3cc4c(cc32)CCO4)c2ccccc21 (stereo not drawn),148 to 150
14,CCCCc1ncc(CNC(C)(Cc2ccccc2)C(=O)O)n1Cc1ccccc1Cl (stereo not drawn),157 to 159
15,c1ccc2c(c1)nnn2C(n1nnc2ccccc21)n1nnc2ccccc21,194 to 195
16,COc1ccc(C=Cc2cc(OC)c(OC)c(OC)c2)c(O)c1O,114 to 115
17,CCC(CCCCCCCCC(C)(C)CO)N1C(=O)c2cccc([N+](=O)[O-])c2C1=O (stereo not drawn),66 to 68
18,Cn1ncc2c1=CC1=CC=C(N)C(=O)C=21,225 to 227
19,CS(=O)(=O)Oc1cc(OS(C)(=O)=O)cc(OS(C)(=O)=O)c1,145 to 149
20,O=C(O)Cc1coc2cc(OCc3cccc(OCc4ccc(C(F)(F)F)cc4)c3)ccc12,155 to 157
21,FC(F)Sc1ccc(-n2cnnn2)cc1,94 to 97
22,CC(C)C[C@H](NC(=O)OC(C)(C)C)C(=O)C=[N+]=[N-],72 to 74
23,Cc1cc(-c2ccc(C(F)(F)F)cc2)cc(-c2cccc(-c3cccc(S(N)(=O)=O)c3)n2)n1,250
24,O=C(O)c1ccc2c(CCCCN3CC=C(c4ccccc4)CC3)c[nH]c2c1,268
25,CS(=O)(=O)c1ccc(-c2nc(C(F)(F)F)[nH]c2-c2ccc(F)c(F)c2)cc1,249 to 252

# Reference: a melting point compilation (Tetko et al.; mined from patent text by program, amines drawn as free bases though some values may be those of a salt)
